Assay results from patent US20240374590A1, “COMPOSITIONS AND METHODS FOR TREATING CANCER” (A2A PHARMACEUTICALS, INC., priority 2021, published 2024).

Legend:
[1] = tested on: JIMT-1 human breast cancer cell line; experiment: Cell viability assay (SRB) in JIMT-1; assay type: cell-based; settings: 72 hours after treatment, read-out: JIMT1 IC50
Procedure: (§1) Human colon carcinoma cell line HCT-116 was a kind gift from Igor Ronninson from University of South Caroli, Columbia, USA. Human breast cancer cell line, JIMT-1 was kindly provided by Ali Osmay Güre from Bilkent University, Ankara, Turkey. Cells were cultured in Dulbecco's modified Eagle's medium (Lonza, NJ, USA), supplemented with 10% fetal bovine serum (FBS, Lonza), 1% non-essential amino acid (NEAA), 2 mM L-glutamine (Sigma Aldrich, MO, USA) and 50 U/ml penicillin/streptomycin (P/S). HCT-116 cells were cultured in McCoy's 5A (modified) (Gibco) medium supplemented with FBS, NEAA, L-glutamine and P/S. All cell lines were tested regularly using MycoAlert Mycoplasma Detection Kit (Lonza). The cumulative length of the cells between thawing and use in the experiments was less than 20 passages.
(§2) Newly synthesized molecules were dissolved in 100% DMSO to yield a stock concentration of 10 mM. For cell viability assay, JIMT-1 (3×10^3 cells/well) and HCT-116 (4×10^3), cells were seeded into 96-well plates, and 24 hours after cell seeding inhibitor treatments were performed at different concentrations. Cell viability was measured 72 hours after treatment with Sulforhodamine B (SRB, Sigma Aldrich) assay as recommended by the manufacturer.

[2] = tested on: HCT-116 human colon carcinoma cell line; experiment: Cell viability assay (SRB) in HCT-116; assay type: cell-based; settings: 72 hours after treatment, read-out: HCT116 IC50
Procedure: as §1, §2

| SMILES | IC50 [1] [nM] | IC50 [2] [nM] |
| --- | --- | --- |
| COc1ccc(-c2cc(Nc3ccnc(N4CC(C)(C)OC(C)(C)C4)n3)[nH]n2)cc1F [Compound 90, N-(3-(3-fluoro-4-methoxyphenyl)-1H-pyrazol-5-yl)-2-(2,2,6,6-tetramethylmorpholino)pyrimidin-4-amine] | 365 | 733 |
| COc1ccc(-c2cc(Nc3ccnc(N4CCOC(C)(C)C4)n3)[nH]n2)cc1F [Compound 92, 2-(2,2-dimethylmorpholino)-N-(3-(3-fluoro-4-methoxyphenyl)-1H-pyrazol-5-yl)pyrimidin-4-amine] | 245 | 488 |
| COc1ccc(-c2cc(Nc3ccnc(N4CCOC(C(F)(F)F)C4)n3)[nH]n2)cc1F (centres unmarked) [Compound 96, N-(3-(3-fluoro-4-methoxyphenyl)-1H-pyrazol-5-yl)-2-(2-(trifluoromethyl)morpholino)pyrimidin-4-amine] | 47 | 89 |
| COc1ccc(-c2cc(Nc3ccnc(N4C[C@@H](C)O[C@H](C)C4)n3)[nH]n2)cc1F [Compound 106, 2-((2R,6R)-2,6-dimethylmorpholino)-N-(3-(3-fluoro-4-methoxyphenyl)-1H-pyrazol-5-yl)pyrimidin-4-amine] | 62 | 91 |
| COc1ccc(-c2cc(Nc3ccnc(N4CCC(F)CC4)n3)[nH]n2)c(F)c1 [Compound 131, N-(3-(2-fluoro-4-methoxyphenyl)-1H-pyrazol-5-yl)-2-(4-fluoropiperidin-1-yl)pyrimidin-4-amine] | 53 | 47 |
| COc1ccc(-c2cc(Nc3ccnc(N4CC(C)(C)OC(C)(C)C4)n3)[nH]n2)c(F)c1 [Compound 133, N-(3-(2-fluoro-4-methoxyphenyl)-1H-pyrazol-5-yl)-2-(2,2,6,6-tetramethylmorpholino)pyrimidin-4-amine] | 606 | 6560 |
| COc1ccc(-c2cc(Nc3ccnc(N4CCOC(C)(C)C4)n3)[nH]n2)c(F)c1 [Compound 135, 2-(2,2-dimethylmorpholino)-N-(3-(2-fluoro-4-methoxyphenyl)-1H-pyrazol-5-yl)pyrimidin-4-amine] | 230 | 880 |
| COc1ccc(-c2cc(Nc3ccnc(N4C(C)COCC4C)n3)[nH]n2)c(F)c1 (centres unmarked) [Compound 136, 2-(3,5-dimethylmorpholino)-N-(3-(2-fluoro-4-methoxyphenyl)-1H-pyrazol-5-yl)pyrimidin-4-amine] | 895 | 1300 |
| COc1ccc(-c2cc(Nc3ccnc(N4CCOC(C(F)(F)F)C4)n3)[nH]n2)c(F)c1 (centres unmarked) [Compound 139, N-(3-(2-fluoro-4-methoxyphenyl)-1H-pyrazol-5-yl)-2-(2-(trifluoromethyl)morpholino)pyrimidin-4-amine] | 91 | 146 |
| COc1ccc(-c2cc(Nc3ccnc(N4CC5COCC5C4)n3)[nH]n2)c(F)c1 (centres unmarked) [Compound 140, N-(3-(2-fluoro-4-methoxyphenyl)-1H-pyrazol-5-yl)-2-(tetrahydro-1H-furo[3,4-c]pyrrol-5(3H)-yl)pyrimidin-4-amine] | 107 | 457 |
| COc1ccc(-c2cc(Nc3ccnc(N4CCC5(CCC5)CC4)n3)[nH]n2)c(F)c1 [Compound 142, N-(3-(2-fluoro-4-methoxyphenyl)-1H-pyrazol-5-yl)-2-(7-azaspiro[3.5]nonan-7-yl)pyrimidin-4-amine] | 266 | 1210 |
| COc1ccc(-c2cc(Nc3ccnc(N4CCC(C)(C)CC4)n3)[nH]n2)c(F)c1 [Compound 143, 2-(4,4-dimethylpiperidin-1-yl)-N-(3-(2-fluoro-4-methoxyphenyl)-1H-pyrazol-5-yl)pyrimidin-4-amine] | 426 | 1010 |
| COc1ccc(-c2cc(Nc3ccnc(N4CCC5(CC4)CC5)n3)[nH]n2)c(F)c1 [Compound 144, N-(3-(2-fluoro-4-methoxyphenyl)-1H-pyrazol-5-yl)-2-(6-azaspiro[2.5]octan-6-yl)pyrimidin-4-amine] | 119 | 330 |
| COc1ccc(-c2cc(Nc3ccnc(N4C5CCC4CC(C)C5)n3)[nH]n2)c(F)c1 (centres unmarked) [Compound 145, N-(3-(2-fluoro-4-methoxyphenyl)-1H-pyrazol-5-yl)-2-(3-methyl-8-azabicyclo[3.2.1]octan-8-yl)pyrimidin-4-amine] | 101 | 279 |
| COc1ccc(-c2cc(Nc3ccnc(N4CC5(COC5)C4)n3)[nH]n2)c(F)c1 [Compound 146, N-(3-(2-fluoro-4-methoxyphenyl)-1H-pyrazol-5-yl)-2-(2-oxa-6-azaspiro[3.3]heptan-6-yl)pyrimidin-4-amine] | 479 | 534 |
| COc1ccc(-c2cc(Nc3ccnc(N4CCN(C)CC4)n3)[nH]n2)c(F)c1 [Compound 148, N-(3-(2-fluoro-4-methoxyphenyl)-1H-pyrazol-5-yl)-2-(4-methylpiperazin-1-yl)pyrimidin-4-amine] | 213 | 986 |
| COc1ccc(-c2cc(Nc3ccnc(N4C[C@@H](C)O[C@H](C)C4)n3)[nH]n2)c(F)c1 [Compound 149, 2-((2R,6R)-2,6-dimethylmorpholino)-N-(3-(2-fluoro-4-methoxyphenyl)-1H-pyrazol-5-yl)pyrimidin-4-amine] | 65 | 115 |

These reach a lower IC50 [1]. Values come first.

| IC50 [1] [nM] | IC50 [2] [nM] | SMILES |
| --- | --- | --- |
| 41 | 163 | COc1ccc(-c2cc(Nc3ccnc(N4CC5CC5C4)n3)[nH]n2)c(F)c1 (centres unmarked) [Compound 141, 2-(3-azabicyclo[3.1.0]hexan-3-yl)-N-(3-(2-fluoro-4-methoxyphenyl)-1H-pyrazol-5-yl)pyrimidin-4-amine] |
| 31 | 9 | COc1ccc(-c2cc(Nc3ccnc(N4CCC(C(F)(F)F)CC4)n3)[nH]n2)cc1F [Compound 89, N-(3-(3-fluoro-4-methoxyphenyl)-1H-pyrazol-5-yl)-2-(4-(trifluoromethyl)piperidin-1-yl)pyrimidin-4-amine] |
| 29 | 46 | COc1ccc(-c2cc(Nc3ccnc(N4CCOC(C)C4)n3)[nH]n2)cc1F (centres unmarked) [Compound 94, N-(3-(3-fluoro-4-methoxyphenyl)-1H-pyrazol-5-yl)-2-(2-methylmorpholino)pyrimidin-4-amine] |
| 26 | 28 | COc1ccc(-c2cc(Nc3ccnc(N4CCC(C(F)(F)F)CC4)n3)[nH]n2)cc1 [Compound 70, N-(3-(4-methoxyphenyl)-1H-pyrazol-5-yl)-2-(4-(trifluoromethyl)piperidin-1-yl)pyrimidin-4-amine] |
| 25 | 25 | COc1ccc(-c2cc(Nc3ccnc(N4CCC(C)CC4)n3)[nH]n2)cc1F [Compound 87, N-(3-(3-fluoro-4-methoxyphenyl)-1H-pyrazol-5-yl)-2-(4-methylpiperidin-1-yl)pyrimidin-4-amine] |
| 24 | 59 | COc1ccc(-c2cc(Nc3ccnc(N4CCOC(C)C4)n3)[nH]n2)c(F)c1 (centres unmarked) [Compound 137, N-(3-(2-fluoro-4-methoxyphenyl)-1H-pyrazol-5-yl)-2-(2-methylmorpholino)pyrimidin-4-amine] |
| 18 | 7 | COc1ccc(-c2cc(Nc3ccnc(N4CCC(C)CC4)n3)[nH]n2)c(F)c1 [Compound 130, N-(3-(2-fluoro-4-methoxyphenyl)-1H-pyrazol-5-yl)-2-(4-methylpiperidin-1-yl)pyrimidin-4-amine] |
| 18 | 38 | COc1ccc(-c2cc(Nc3ccnc(N4CCC(C(F)(F)F)CC4)n3)[nH]n2)c(F)c1 [Compound 132, N-(3-(2-fluoro-4-methoxyphenyl)-1H-pyrazol-5-yl)-2-(4-(trifluoromethyl)piperidin-1-yl)pyrimidin-4-amine] |
| 18 | 52 | COc1ccc(-c2cc(Nc3ccnc(N4CCCC4)n3)[nH]n2)c(F)c1 [Compound 151, N-(3-(2-fluoro-4-methoxyphenyl)-1H-pyrazol-5-yl)-2-(pyrrolidin-1-yl)pyrimidin-4-amine] |
| 16 | 23 | COc1ccc(-c2cc(Nc3ccnc(N4C[C@H](C)O[C@@H](C)C4)n3)[nH]n2)c(F)c1 [Compound 150, 2-((2S,6S)-2,6-dimethylmorpholino)-N-(3-(2-fluoro-4-methoxyphenyl)-1H-pyrazol-5-yl)pyrimidin-4-amine] |
| 15 | 52 | COc1ccc(-c2cc(Nc3ccnc(N4CCOCC4C)n3)[nH]n2)c(F)c1 (centres unmarked) [Compound 138, N-(3-(2-fluoro-4-methoxyphenyl)-1H-pyrazol-5-yl)-2-(3-methylmorpholino)pyrimidin-4-amine] |
| 7 | 5 | COc1ccc(-c2cc(Nc3ccnc(N4C[C@@H](C)O[C@@H](C)C4)n3)[nH]n2)cc1F [Compound 86b, 2-((2R,6S)-2,6-dimethylmorpholino)-N-(3-(3-fluoro-4-methoxyphenyl)-1H-pyrazol-5-yl)pyrimidin-4-amine] |
| 6 | 10 | COc1ccc(-c2cc(Nc3ccnc(N4CCC4)n3)[nH]n2)c(F)c1 [Compound 153, 2-(azetidin-1-yl)-N-(3-(2-fluoro-4-methoxyphenyl)-1H-pyrazol-5-yl)pyrimidin-4-amine] |
| 5 | 11 | COc1ccc(-c2cc(Nc3ccnc(N4CCCCC4)n3)[nH]n2)c(F)c1 [Compound 152, N-(3-(2-fluoro-4-methoxyphenyl)-1H-pyrazol-5-yl)-2-(piperidin-1-yl)pyrimidin-4-amine] |
